In a melting point compilation (Tetko et al.; mined from patent text by program, amines drawn as free bases though some values may be those of a salt) one finds melting point data, which are given here for 88 compounds.

Structures are written as SMILES.

In general, melting point refers to the temperature, or range, at which the solid turns liquid. The compound `CN(C)CCCN(C)C1CCC2C3CCC4CCCCC4(C)C3C(O)CC21C` (stereo not drawn) came in with a melting point of 130 to 131 °C. The value for `COC(=O)c1cc2c(Oc3ccc(Cl)cc3)cncc2s1` was 99 to 100 °C. The figure for `CCOC(=O)CC(=O)NS(=O)(=O)c1ccc([N+](=O)[O-])cc1` is 97 °C; for `CCCC(CCC)N(C[C@H]1CCC[C@H](CN(C(=O)Nc2ccc(N(C)C)cc2)C(CCC)CCC)C1)C(=O)Nc1ccc(N(C)C)cc1` (relative stereo) it is 122 to 126 °C. With `O=C(O)c1c(F)cc(OCCNC(=O)C2Cc3ccccc3N2S(=O)(=O)c2ccc(-c3ccc(F)cc3Cl)cc2)cc1F` (stereo not drawn), the melting point fell in the range of 75 to 80 °C.

`C=Cc1ccc(CC(=O)O)cc1` displayed a melting point of 94 °C.

The compound `CCOCc1nc2c(N)nc3c(c2n1CCCNS(C)(=O)=O)CCCC3` came in with a melting point of 212 to 214 °C. The value for `O=Cc1ccc(C(F)(F)F)cc1[N+](=O)[O-]` was 63 °C. The value for `O=C(O)C(=NOc1ccccc1)c1ccccc1` was 105 °C; that for `COC(=O)CCOc1ccccc1CNC(=O)C1Cc2ccccc2N1S(=O)(=O)c1ccc(-c2cccc(C(F)(F)F)c2)cc1` (stereo not drawn) was 131 °C. Turning to `CCOC(=O)C=Cc1ccc(C(=O)O)cc1`, the melting point is 196 to 197 °C.

Compound `C#Cc1ccc2c(c1)CCC2=O` had a melting point of 157 °C. The figure for `CCN(CC)CC#CCCC(=O)C(O)(c1ccccc1)C1CCCCC1` (stereo not drawn) is 112 to 115 °C; for `O=S1(=O)NC(c2ccccc2)Nc2c(Br)cc(Br)cc21` (stereo not drawn) it is 186 to 189 °C. The value for `COC(=O)c1cc(OCc2ccc(OCc3nc(-c4ccco4)oc3C)c(OC)c2)nn1-c1ccccc1` was 146 to 147 °C; that for `O=C(N[C@@H](CSC(=O)OCc1ccccc1)C(=O)O)OCc1ccccc1` was 93 to 94 °C. For the compound `O=C(Nc1ccc2c3c(oc2c1)CCC(O)C3O)c1c(Cl)cccc1Cl` (stereo not drawn), the melting point lay within 206 to 209 °C. The figure for `Cc1cccc2c1C(=O)N1CCCC1C(=O)N2` (stereo not drawn) is 212 to 214 °C; for `CCC(=O)OCc1c2ccccc2cc2ccccc12` it is 79 to 80 °C. The figure for `COC(=O)P(=O)(OC)OC` is 150 °C; for `CC(=O)N(CCc1nc(-c2ccccc2)oc1C)Cc1ccc(C[C@@H](C(=O)O)n2cccc2)cc1` it is 82 to 87 °C; for `COc1cc2c(cc1OCc1ccccc1)C(Sc1ccc(Cl)cc1)(C(N)=CC(=O)OC(C)(C)C)C2` (stereo not drawn) it is 112 to 115 °C.

Compound `FC(F)(F)Oc1cccc(-c2ccc3nnn(Cc4ccc5ncccc5c4)c3n2)c1` returned a melting point of 140 to 142 °C.

In turn, `COc1ccc(C#Cc2ccc(C=O)cc2)cc1` returned a melting point of 106 °C. The value for `COC(=O)c1cc(N)ccc1Oc1ccccc1` was 154 to 156 °C; that for `CCOc1nc2ccccc2n(-c2ccc(Cl)cc2)c1=O` was 244 to 246 °C. As for `Cc1nnc2n1CC(=O)N(C)c1ccc(Cl)cc1-2`, the melting point lay within 228 to 230 °C. The figure for `O=C(O)c1cccc(-c2cccc3sc(Cc4cccc(C(F)(F)F)c4)nc23)c1` is 152 to 153 °C; for `CC(C(=O)n1c(=O)oc2ccccc21)C(O)c1ccccc1` (stereo not drawn) it is 155 to 158 °C. The value for `CC12CC(N3CCOCC3)C(O)CC1CCC1C2CCC2(C)C(O)C(N3CCCCC3)CC12` (stereo not drawn) was 222 to 229 °C. The value for `CCc1nc2cc(COC)c(Cl)cc2n1-c1ccc(CCNC(=O)NS(=O)(=O)c2ccc(C)cc2)cc1` was 135 °C. `Cc1c(O)cccc1C(=O)N[C@@H](Cc1ccccc1)[C@H](O)C(=O)N1CSC(C)(C)[C@H]1C(=O)N[C@@H]1CCOc2ccccc21` gave a melting point of 135 to 136 °C. The figure for `N#Cc1ccc2c(c1)C(n1ccccc1=O)=CC(CF)(CF)O2` is 174 to 175 °C; for `CC(=O)Cc1ccccc1Br` it is 60 to 65 °C; for `CCOC(=O)c1ncn2c1CNC(=O)c1cc(OC)ccc1-2` it is 240 °C. Compound `CON1CCC(C2NC(=O)C(c3c(C)cc(C)cc3C)=C2O)CC1` (stereo not drawn) displayed a melting point of 206 to 209 °C. The figure for `O=c1[nH]c(=O)c2cn(C3CCCC3)nc2[nH]1` is more than 300 °C; for `COc1ccc2c(c1)CCC(Cc1ccccc1)C2=O` (stereo not drawn) it is 50 to 51 °C; for `CC(C)C(=O)Nc1ccc(OCC(O)CNC(C)(C)C)c(C#N)c1` (stereo not drawn) it is 118 to 121 °C.

On to `N#Cc1nn(-c2c(Cl)cc(C(F)(F)F)cc2Cl)cc1C=C(Cl)Cl`, for which the melting point was 99 to 101 °C.

Regarding `CCCCNC(=O)C(Cc1ccccc1)NC(=O)Nc1n[nH]c(=S)s1` (stereo not drawn), the melting point lay in the range of 177 to 179 °C.

For the compound `O=C1C(=Cc2cccnc2)N2CCC1CC2`, the melting point amounted to 113 °C.

Regarding `CCCCc1nc(=O)c2cc(C#N)ccc2[nH]1`, the melting point is 243 to 245 °C.

On to `CCOC(=O)C1=C(COCCNS(=O)(=O)NC(=O)c2ccco2)NC(C)=C(C(=O)OC)C1c1ccccc1Cl` (stereo not drawn), for which the melting point was found to be 138 °C. Regarding `O=C(O)c1cccc(CS(=O)(=O)CCO)c1`, the melting point lay within 67 to 70 °C. The value for `Cn1nc2c(N)nc3ccccc3c2c1CC(C)(C)C` was 254 to 255 °C; that for `O=c1[nH]c2cscc2c(=O)n1CCCCN1CCN(c2cccc(C(F)(F)F)c2)CC1` was 126 to 128 °C. `CC(C)(C)OC(=O)CN1CC(c2ccccc2)CCC(N=[N+]=[N-])C1=O` (stereo not drawn): the melting point was in the range of 119 to 121 °C. The value for `CCc1nn(CCO)c(CC)c1Oc1cc(C#N)cc(S(C)(=O)=O)c1` was 133 °C; that for `CC(=CC1=NCCC1)N(C)C1CCCCC1` was 152 to 153 °C. Compound `N#C/C=C/c1cn(-c2c(Cl)cc(C(F)(F)F)cc2Cl)nc1C#N` displayed a melting point of 144 to 145 °C. The figure for `COc1ccc(NC(=O)c2c(C)c([N+](=O)[O-])cc3nc(OC)c(OC)nc23)cc1` is 206 to 208 °C; for `C=CC(C)(C)C(O)(COc1ccc(-c2ccccc2)cc1)Cn1cncn1` (stereo not drawn) it is 85 to 87 °C; for `CC(C(=O)N(C)O)c1ccc(-c2ccccc2)c(F)c1` (stereo not drawn) it is 125 to 126 °C. On to `COc1cc(C(=O)CCCC2CCCCC2)c(OC)cc1Cl`, for which the melting point lay within 80 to 81 °C. The value for `CC(C)(C)c1cc(CN2CC(O)C2)cc(C(C)(C)C)c1O` was 139 to 142 °C; that for `C=CCn1nc(C)c(CC(=O)O)c1C` was 139 to 140 °C.

On to `C=C(C)CNC(=NC#N)Nc1cccnc1`, for which the melting point was in the range of 140 to 141 °C.

Compound `NC(=O)C[C@H](NC(=O)CCc1ccc(OCc2ccccc2)cc1OCc1ccccc1)C(=O)N1CCN(c2ccccc2)CC1` came in with a melting point of 96 to 98 °C. The figure for `COc1cccc(CNC(=O)c2nc3scc(-c4ccccc4)c3c(=O)[nH]2)c1` is 177 to 178 °C; for `O=S(=O)(c1ccc(F)cc1)c1c[nH]c2ncccc12` it is 212 to 213 °C. For `N#Cc1cn(C[C@@H]2CN(c3ccc(N4CCC5(CC4)OCCO5)c(F)c3)C(=O)O2)nn1`, the melting point was 158 to 160 °C.

In turn, `COc1cccc2c(C(=O)c3ccc(OC4CCCCC4N4CCCCC4)cc3)c(-c3ccc(OCCN4CCCC4)cc3)sc12` (stereo not drawn) registered a melting point of 66 to 69 °C.

In the case of `COc1cc(-n2cnnc2I)ccc1C`, the melting point was 123 °C.

Compound `CNC(=NC#N)NCCCCc1nccc(NC(N)=NCCOC)n1` had a melting point of 162 to 165 °C. The figure for `CCCc1ccc(-c2ccc3c(c2)C=C(C(=O)Nc2ccc(CN(C)C4CCOCC4)cc2)CCS3(=O)=O)cc1` is 247 to 250 °C. The value for `Cc1cc(C(F)(C(F)(F)F)C(F)(F)F)cc(C)c1NC(=O)c1cc(F)c(C#N)c(NC(=O)c2ccccc2)c1F` was 245 to 248 °C; that for `Clc1cccc(Nc2n[nH]c3ncnc(NCc4ccccc4)c23)c1` was 216 to 218 °C.

`Cc1nc(-c2ccc(-c3cnc4[nH]c(=O)n(CCN5CCCC5=O)c4n3)cc2)n[nH]1` displayed a melting point of 315 to 316 °C. The figure for `Cn1nc(N)nc1NCCSCc1cccc(CN2CCCCC2)c1` is 92 to 93 °C; for `COc1cc2c(c3c1OC(C)(C)C3)C(c1cccc(C(=O)NC(C)(C)C(N)=O)c1)=NC(C)(C)C2` it is 129 to 131 °C; for `COc1cc(NC(=O)OCc2ccccc2)c(Cl)cc1C(=O)O` it is 182 to 183 °C. The value for `Nc1nc2[nH]c(CCC#Cc3ccc(C(=O)N[C@@H](CCC(=O)O)C(=O)O)cn3)cc2c(=O)[nH]1` was 178 to 179 °C; that for `O=C(Nc1ccc(OCCN2CCOCC2)c2ccccc12)NC1CC1c1ccccc1` (stereo not drawn) was 156 to 157 °C; that for `O=c1ccc(-c2cc(F)cc(F)c2)n[nH]1` was 230 °C. The figure for `CC#COc1cccc2oc3ccccc3c(=O)c12` is 168 to 169 °C.

Take `CN(C)c1ccc(Nc2ncc(C(=O)O)c(=O)[nH]2)cc1`: the melting point was in the range of 261 to 263 °C. The figure for `C[C@@H](N(CC(=O)O)C(=O)c1ccc(OC(F)(F)F)cc1)[C@](O)(Cn1cncn1)c1ccc(F)cc1F` (relative stereo) is 99 to 105 °C; for `COc1ccc(-c2cc(=O)c3c(OCC(O)CO)cc(OCC(O)CO)cc3o2)cc1O` (stereo not drawn) it is 204 °C; for `CNC(=O)CCc1cn(Cc2ccc(C(=O)O)cc2OC)c2cc(C(=O)NCC3CCCC3)ccc12` it is 274 to 275 °C. The value for `N#CC(C(N)=S)c1ccc(Cl)c(Cl)c1` (stereo not drawn) was 143 °C; that for `Cc1c(C(N)=O)nnn1Cc1c(F)cccc1F` was 208 to 210 °C; that for `CC[Si](CC)(c1ccc(N(c2ccccc2)c2ccccc2)cc1)c1ccc(N(c2ccccc2)c2ccccc2)cc1` was 154 to 155 °C. As to `NC(=O)C1CCN(c2cc(-c3ccc(Cl)cc3)nc3ccc(Cl)cc23)CC1`, the melting point lay in the range of 272 to 275 °C. The value for `COc1cc2oc(=O)c(CCN3CCN(c4ccccc4)CC3)c(C)c2cc1OC` was 169 to 172 °C; that for `OCc1sc(Cl)nc1C(F)(F)F` was 39 to 45 °C.

Consider `COC(=O)C=C(C)C=CC1(O)C(C)=CC(=O)c2ccccc21` (stereo not drawn), for which the melting point was 147 to 148 °C. The value for `Cc1ccc2c(c1)/C(=N\NC(=O)NCc1ccccc1)C(=O)N2CCN(C(C)C)C(C)C` was 159 to 160 °C.
